Source: US7501431B2, “Physiologically active substances PF1270A, B and C substances” (Meui Seika Kaisha, Ltd., priority 2003, dated 2009)
Like-named read-outs stand apart in the source and are kept apart here.

Key:
histamine H3 receptor = target: T1, histamine H3 receptor (Rattus norvegicus, UniProt Q9QYN8); assay: N^α-methylhistamine binding inhibition test ([3H]N^α-methylhistamine, rat fore-brain membrane fraction)
T1 construct: Rat fore-brain was homogenized in 10 volumes of 0.32 M sucrose solution; from tissue; host or cells: rat fore-brain membrane fraction
T1 sequence (Q9QYN8 whole entry): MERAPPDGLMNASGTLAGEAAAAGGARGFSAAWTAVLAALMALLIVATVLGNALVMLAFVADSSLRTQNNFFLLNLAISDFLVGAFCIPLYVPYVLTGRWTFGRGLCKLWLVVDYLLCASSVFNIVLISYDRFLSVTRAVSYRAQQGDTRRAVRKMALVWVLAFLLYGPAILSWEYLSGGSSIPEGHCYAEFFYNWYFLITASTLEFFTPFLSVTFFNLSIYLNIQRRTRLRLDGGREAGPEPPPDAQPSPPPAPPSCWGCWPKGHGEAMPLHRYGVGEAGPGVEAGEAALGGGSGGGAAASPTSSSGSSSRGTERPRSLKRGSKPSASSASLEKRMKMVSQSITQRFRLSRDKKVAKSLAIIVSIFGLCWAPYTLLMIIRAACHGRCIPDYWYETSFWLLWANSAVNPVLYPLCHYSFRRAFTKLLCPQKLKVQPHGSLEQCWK
Excerpt: The PF1270A, B and C substances obtained by the invention have affinity for histamine H3 receptor. Affinity of the PF1270A, B and C substances for histamine H3 receptor was examined by a binding inhibition test of a histamine H3 receptor ligand, N^α-methylhistamine.
Test Example N^α-methylhistamine Binding Inhibition Activity
Rat fore-brain was homogenized in 10 volumes of 0.32 M sucrose solution using a Teflon-glass homogenizer, and the thus obtained homogenate was centrifuged at 1000×g for 10 minutes. The supernatant was centrifuged at 39000×g for 20 minutes to obtain the precipitate. This precipitate was washed with an assay buffer (50 mM Tris (pH 7.4), 5 mM EDTA) by centrifugation. This operation was further carried out twice, and the finally obtained membrane fraction was used as the histamine H3 receptor membrane fraction.
The binding inhibition test was carried out using the thus obtained membrane fraction and a radioactive ligand [^3H]N^α-methylhistamine (manufactured by Perkin-Elmer Life Science). In the presence of PF1270A, B or C substance, the membrane fraction (55 μg as protein) and 1 nM in final concentration of [^3H]N^α-methylhistamine were added to 150 μl of the assay buffer and incubated at room temperature for 60 minutes. This was filtered using a unifilter GF/B filter (manufactured by Perkin-Elmer) coated with 0.3% polyethyleneimine and washed three times with 200 μl of the assay buffer. After drying at 50° C. for 1 hour, 30 μl of Microscinti-20 (manufactured by Perkin-Elmer) was added thereto as the scintillator, and the radioactivity was counted using Top Count (manufactured by Perkin-Elmer). The nonspecific binding was determined by adding a large excess of thioperamide (10 μM in final concentration). The binding inhibition ratio of N^α-methylhistamine in the presence of PF1270A, B or C substance was calculated based on the following formula. […]

[1] = Solubility (physicochemical properties)
[2] = rat fore-brain histamine H3 receptor membrane fraction, 1 nM [3H]N^α-methylhistamine, room temperature 60 minutes, read-out: N^α-methylhistamine binding inhibition activity, IC50 (converted)

SMILES | IC50 (histamine H3 receptor) [nM] | Solubility in chloroform and methanol [1] | Solubility in water [1] | IC50 (histamine H3 receptor; [2]) [nM]
CCCC(=O)OC1CC(C)N2CC3(NC)CC4(C(=O)Nc5c(C(=O)C6OC6(C)C)cccc54)C(C)(C=O)C3CC2C1 (stereo not drawn) [PF1270A] | 83.1 | soluble | hardly soluble | –
CCC(=O)OC1CC(C)N2CC3(NC)CC4(C(=O)Nc5c(C(=O)C6OC6(C)C)cccc54)C(C)(C=O)C3CC2C1 (stereo not drawn) [PF1270B] | – | soluble | hardly soluble | 399
CNC12CN3C(C)CC(OC(C)=O)CC3CC1C(C)(C=O)C1(C2)C(=O)Nc2c(C(=O)C3OC3(C)C)cccc21 (stereo not drawn) [PF1270C] | – | soluble | hardly soluble | 763
